Results taken from patent publication US8367602B2, “Consensus peptides and a method for inducing biomineralization” (Corticalis AS, priority 2006, dated 2013).
Where “and” joins values, the source holds several entries; their conditions need not be identical. Equal values may be shown once. Ends that are not written are not given here.

Assays:
[1] = test system: LDH activity; test: Wound fluid LDH activity at implant site, tresyl chloride coupled peptide, Example 5; format: in vivo, rabbits (New Zealand White); settings: 4 weeks healing, vs control implants; tresyl chloride coupling
Protocol: The surface of the machined titanium implant was first covered with 10 μl of tresyl chloride (2,2,2-trifluoroethanesulfonyl chloride) and incubated at 37° C. for 2 days. Then, the tresylated titanium implant was washed with water, water-acetone (50:50), acetone, and dried in a desiccator.
Peptide solution (10 μl, 0.1 mg/ml) was applied to the surface of the titanium implant and incubated for 24 h at 37° C., then rinsed with water. Finally, implants were dried in a desiccator, packed and stored at 4° C.
(§1) The implants with consensus peptide coated surfaces (n=12) and controls (n=12) were placed in calibrated cortical bone defects in the tibia of rabbits (New Zealand White). A small central fenestration into the bone marrow beneath each implant was made to allow for migration of osteogenic cells to the implant surfaces. The methods used were all according to a standardized and validated model established for the study of bone attachment to titanium implant surfaces (Rønold and Ellingsen, 2002). Each rabbit received four implants, two in each tibia bone. Location of test and control implants was randomized and the operator was blinded. At four weeks after implantation the rabbits were sacrificed and the tibia bones with the implants attached were excised. […]
(§2) LDH activity and total protein was analysed in the wound fluid collected from the implant site following a 4 week healing period. […]

[2] = test system: LDH activity; test: Wound fluid LDH activity at implant site, physically adsorbed peptide, Example 6; format: in vivo, rabbits (New Zealand White); settings: 4 weeks healing, vs control implants; physical adsorption
Protocol: Peptides can be physically adsorbed onto a titanium surface, as an alternative method for covalent binding. Negatively charged carboxylic groups show a strong affinity for metal oxide surfaces and can therefore directly interact with the titanium surface (Imamura et al, 2007). Peptide solution (10 μl, 0.1 mg/ml) was applied to the surface of the titanium implant and incubated for 24 h at 37° C. After 24 h, titanium implants were rinsed and packed with the same method as described above. Control implants were treated with 10 μl of PBS without adding peptide.
as §1, with “blinded.” for “blinded. At four weeks after implantation the rabbits were sacrificed and the tibia bones with the implants attached were excised.”
as §2

[3] = Mineral precipitation (mfu by SEM) on peptide-coated coin shaped titanium specimens, Example 1
Protocol: Eight coin shaped implants with a diameter of 6.25 mm, was attached to an titanium electrode and submerged in an sterile electrolyte containing 0.5 M NaCl, adjusted to pH 8.0 by the use of 1.0 M NaOH, and a synthetic poly-proline peptide designed to stimulate nucleation of calcium phosphate crystals. The peptide, having a pI of 5.82, had the following sequence: PLV PSY PLV PSY PLV PSY PYP PLPP (SEQ ID NO:3), and was applied at a final concentration of 0.01 mg/ml in the electrolyte. The electrode was attached to the positive outlet of a power supply, and an electrical current of 10 Volts at 100 mA at a cell temperature of 40 degrees Celsius, was applied for eight hours. The electrolytic process produced a thin peptide coating onto the oxidized titanium surface visible as a greyish precipitation. After coating the titanium specimens were rinsed in sterile water and subsequently put into sterile glass containers where they were allowed to air-dry. Eight identical titanium specimens, treated identically as the test specimens with the exception that no peptides were added to the electrolyte, was produced as controls. After drying, the titanium specimens (peptide coated and controls) were submerged in 50 ml of a saturated solution of calcium phosphate at 50 degrees Celsius. The solution was then allowed to cool to room temperature and incubated at 25 degrees Celsius for 48 hours. The titanium specimens were then removed from the solution, rinsed briefly in sterile water and air-dried in a desiccator. When dry, the implants were directly analyzed by scanning electron microscopy (SEM) for quantitative and qualitative assessment of the number and nature of mineral precipitation foci present on their surfaces. The number of mineral forming units (mfu) on the surface directly corresponds to the number of mineral nucleation sites present on the surface during the experiments.
This is a strong indication that the synthetic peptide used here positively influence the formation of bone mineral deposition onto titanium surfaces.

[4] = Isoelectric point (pI) of the peptide; format: physicochemical

| Substance | LDH activity in the periimplant tissue (wound fluid) [1] | LDH activity in the periimplant tissue (wound fluid) [2] | Number of mineral forming units (mfu) per square mm titanium surface assessed by SEM ([3]; individual peptide coated specimens, saturated calcium phosphate solution, 48 hours at 25 degrees Celsius) | Number of mineral forming units (mfu) per square mm titanium surface assessed by SEM, mean values ([3]; mean of peptide coated specimens (n = 8)) | number of mineral deposition foci versus controls ([3]; peptide coated titanium specimens vs controls without peptide) | pI [4] |
| --- | --- | --- | --- | --- | --- | --- |
| PLVPSQPLVPSQPLVPSQPQPPLPP [SEQ ID NO 4, PLV PSQ PLV PSQ PLV PSQ PQP PLPP] | decrease | decrease |  |  |  |  |
| PLV PSY PLV PSY PLV PSY PYP PLPP (PLVPSYPLVPSYPLVPSYPYPPLPP; Mineralization/biomineralization inducing peptide) [SEQ ID NO 3] |  |  | 5625 mfu mfu per square mm and Confluent (Values above 10.000 are recorded as “Confluent”) (4×) and 7744 mfu mfu per square mm and 9025 mfu mfu per square mm and 8100 mfu mfu per square mm | >8812 mfu mfu per square mm | significantly (p<0.01) increased | 5.82 |
